# Source: US20190373887A1, “ENCAPSULATED MOLUSCICIDE” (INGWERMAT LIMITED, priority 2015, published 2019)
# Experiments:
# rats [1] = assay: acute oral toxicity in rats (LD50); type: in vivo, rat; settings: weight for weight basis
# [2] = tested on: Common garden slugs (Arion distinctus); assay: slug mucosal contact test (mucus production and body weight loss); type: in vivo; settings: for Mucus loss initial test / Mucus loss 24 test: 30-min contact, % of body weight; for Mucus loss initial test: 60 mg test substance, mean n = 6, initial treatment; for Mucus loss 24 test: second treatment 24 hours later; for Mucus loss 24 test / Remaining body weight after 24 h and 48 h: mean n = 6; for Potency - loss of body weight relative to metaldehyde after deduction of weight loss from the control: after 48 hours; for Potency - loss of body weight relative to metaldehyde after deduction of weight loss from the control / Potency - loss of mucus relative to metaldehyde: metaldehyde = 100; for Combined mucus loss: combined losses of mucus for the two tests; for toxicity in mollusc foot contact tests relative to metaldehyde: contact with the mucus membrane of molluscs; for Potency - loss of mucus relative to metaldehyde: from combined mucus loss; for Remaining body weight after 24 h and 48 h: percentage of the initial body weight; for Reduction in toxic response relative to metaldehyde: Loss of body weight (Table 3) / Reduction in toxic response relative to metaldehyde: Loss of mucus (Table 2): weight for weight basis
# Method: To investigate relative toxicity of aldehydes to molluscs, tests were conducted using a method adapted from Adriaens et al. The Mucosal Toxicity of Different Benzalkonium Chloride Analogues Evaluated with an Alternative Test. Pharmaceutical Research, Vol. 18, pages 937-941, 2001.
# Common garden slugs (Arion distinctus) weighing between 1.9 g and 5.2 g were collected from a UK suburban garden and placed into vented plastic boxes lined with paper towels moistened with phosphate buffered saline. The boxes were kept in the shade inside a greenhouse (10° C. minimum) and fed with lettuce and commercial dog food. Experiments were conducted on six slugs for each test treatment using petri dishes containing Whitman Grade 1 general purpose filter papers (90 mm diameter). Filter papers were wetted to saturation with phosphate buffered saline (pH 7.4) and allowed to drain before placing in the petri dishes. At the beginning of each test slugs were placed individually in a petri dish which had been prepared 3 hours previously as a control or with 60 mg of the test substance consisting of fine powdered metaldehyde or a liquid aldehyde. After 30-min incubation slugs were removed and returned to petri dishes with filter papers wetted only with the phosphate buffered saline. The slugs were weighed separately before and after treatment. The change in weight caused by the treatment was calculated and expressed as % (w/w) of the body weight. The petri dishes containing the test medium were also weighed before and after the treatment. The weight of mucus produced was calculated and expressed as % (w/w) of the body weight. The treatment and measurements were repeated 24 hour later and final weights taken after a second 24 hour period.
# rats [3] = settings: cited from earlier work
# [4] = cited from earlier work; for Water solubility: at 25 C.; for VP: at 25 deg C.
Structure (SMILES),oral toxicity in rats lower relative to metaldehyde (rats [1]),Mucus loss initial test [2],Mucus loss 24 test [2],Potency - loss of body weight relative to metaldehyde after deduction of weight loss from the control [2],Combined mucus loss [2],toxicity in mollusc foot contact tests relative to metaldehyde [2],Potency - loss of mucus relative to metaldehyde [2],Remaining body weight after 24 h and 48 h ([2]; 24 h after initial treatment),Remaining body weight after 24 h and 48 h ([2]; 48 h after initial treatment),Reduction in toxic response relative to metaldehyde: Loss of body weight (Table 3) [2],Reduction in toxic response relative to metaldehyde: Loss of mucus (Table 2) [2],LD50 acute oral toxicity (rats [3]),Water solubility [4],VP [4]
CCCCCCCCCC=O [1-decanal],approximately 8 fold,3.28 % w/w,2.64 % w/w,40%,5.92 % w/w,less than single fold reductions,62%,79.7 wt %,74.1 wt %,0.40,0.62,LD 50 3096 mg/kg,0.04352 mg/mL,0.235 mm Hg
CCCCCCC=O [1-heptanal],approximately 8 fold,2.77 % w/w,0.55 % w/w,33%,3.32 % w/w,less than single fold reductions,35%,85.2 wt %,76.5 wt %,0.35,0.35,LD50 > 5000 mg/kg,1.167 mg/mL,3.52 mm Hg
CCCCCCCCC=O [1-nonanal],,,,,,,,,,,,LD 50 > 5000 mg/kg,,0.564 mm Hg
CCCCCCCC=O [1-octanal],approximately 8 fold,3.82 % w/w,2.98 % w/w,58%,6.8 % w/w,less than single fold reductions,72%,78.6 wt %,68.7 wt %,0.58,0.72,LD 50 4616 mg/kg,0.3943 mg/mL,1.49 mm Hg
"CC=O [Acetaldehyde, reference compound]",,,,,,,,,,,,LD50 661 mg/kg,,902 mm Hg
CCCC=O [Butanal],,,,,,,,,,,,,,108 mm Hg
CCCCCC=O [Hexanal],,,,,,,,,,,,,,9.57 mm Hg
"CC1OC(C)OC(C)OC(C)O1 (stereo not shown) [Metaldehyde, reference compound]",,5.55 % w/w,3.94 % w/w,100%,9.49 % w/w,,100%,68.5 wt %,55.4 wt %,,,LD50 630 mg/kg,,0.000674 mm Hg
"CC1OC(C)OC(C)O1 (stereo not shown) [Paraldehyde, reference compound]",,,,,,,,,,,,LD 50 2711 mg/kg,24.14 mg/mL,15.7 mm Hg
"CCC=O [Propanal, reference compound]",,,,,,,,,,,,,,317 mm Hg
